# Measurements published in patent publication US20230085307A1, “PYRIDAZINONE COMPOUND AND HERBICIDE” (NISSAN CHEMICAL CORPORATION, priority 2019, published 2023).
# What was measured:
# green foxtail [1] = test: Test Example 5: herbicidal effect by foliage application, plastic box (Table 20, symbol G); format: in vivo, green foxtail (Setaria viridis); conditions: foliage application, 320 g/ha, three weeks after application
# Outline: (§1)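 Post-emergence foliar test in sterilized diluvial soil. Compound applied as water-diluted emulsion at a predetermined rate to 14-day-old plants; evaluation at three weeks.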
# southern crabgrass [2] = test: Test Example 5: herbicidal effect by foliage application, plastic box (Table 20, symbol F); format: in vivo, southern crabgrass (Digitaria ciliaris); conditions: foliage application, 320 g/ha, three weeks after application
# Outline: as §1
# windgrass [3] = test: Test Example 5: herbicidal effect by foliage application, plastic box (Table 20, symbol L); format: in vivo, windgrass (Apera spica-venti); conditions: foliage application, 320 g/ha, three weeks after application
# Outline: as §1
# persian speedwell [4] = test: Test Example 5: herbicidal effect by foliage application, plastic box (Table 20, symbol R); format: in vivo, Persian speedwell (Veronica persica); conditions: foliage application, 320 g/ha, three weeks after application
# Outline: as §1
# velvetleaf [5] = test: Test Example 4: herbicidal effect by soil treatment (Table 19, symbol M); format: in vivo, velvetleaf (Abutilon theophrasti); conditions: amount of applied herbicide 320 g/ha
# Outline: (§2)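 Scoring uses the grading scale of an earlier test, three weeks post-application. Treatment consists of spraying a diluted emulsion formulation across the surface of sterilized diluvial soil in which seeds are buried near 1.5 cm deep; boxes are kept in a greenhouse between 25° C. and 30° C.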
# Chinese sprangletop = test: Test Example 3: herbicidal effect by foliage application, Wagner pot (Table 18, symbol D); format: in vivo, chinese sprangletop (Leptochloa chinensis); conditions: amount of applied herbicide 320 g/ha
# Outline: (§3)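 Plants were sown in alluvial soil held under 0.1–0.5 cm standing water and grown 14 days in a greenhouse at 25–30 °C. An emulsifiable formulation, water-diluted to the set dose, was then sprayed onto the foliage, and effects were scored three weeks later using previously defined criteria.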
# lambsquarters [6] = test: Test Example 4: herbicidal effect by soil treatment (Table 19, symbol O); format: in vivo, lambsquarters (Chenopodium album); conditions: amount of applied herbicide 320 g/ha
# Outline: as §2
# green foxtail [7] = test: Test Example 4: herbicidal effect by soil treatment (Table 19, symbol G); format: in vivo, green foxtail (Setaria viridis); conditions: amount of applied herbicide 320 g/ha
# Outline: as §2
# redroot pigweed [8] = test: Test Example 4: herbicidal effect by soil treatment (Table 19, symbol N); format: in vivo, redroot pigweed (Amaranthus retroflexus); conditions: amount of applied herbicide 320 g/ha
# Outline: as §2
# southern crabgrass [9] = test: Test Example 4: herbicidal effect by soil treatment (Table 19, symbol F); format: in vivo, southern crabgrass (Digitaria ciliaris); conditions: amount of applied herbicide 320 g/ha
# Outline: as §2
# lambsquarters [10] = test: Test Example 5: herbicidal effect by foliage application, plastic box (Table 20, symbol O); format: in vivo, lambsquarters (Chenopodium album); conditions: foliage application, 320 g/ha, three weeks after application
# Outline: as §1
# Italian ryegrass [11] = test: Test Example 4: herbicidal effect by soil treatment (Table 19, symbol K); format: in vivo, Italian ryegrass (Lolium multiflorum); conditions: amount of applied herbicide 320 g/ha
# Outline: as §2
# persian speedwell [12] = test: Test Example 4: herbicidal effect by soil treatment (Table 19, symbol R); format: in vivo, Persian speedwell (Veronica persica); conditions: amount of applied herbicide 320 g/ha
# Outline: as §2
# barnyard grass [13] = test: Test Example 3: herbicidal effect by foliage application, Wagner pot (Table 18, symbol H); format: in vivo, barnyard grass (Echinochloa crus-galli); conditions: amount of applied herbicide 320 g/ha
# Outline: as §3
# wild oat [14] = test: Test Example 4: herbicidal effect by soil treatment (Table 19, symbol I); format: in vivo, wild oat (Avena fatua); conditions: amount of applied herbicide 320 g/ha
# Outline: as §2
# Italian ryegrass [15] = test: Test Example 5: herbicidal effect by foliage application, plastic box (Table 20, symbol K); format: in vivo, Italian ryegrass (Lolium multiflorum); conditions: foliage application, 320 g/ha, three weeks after application
# Outline: as §1
# wild oat [16] = test: Test Example 5: herbicidal effect by foliage application, plastic box (Table 20, symbol I); format: in vivo, wild oat (Avena fatua); conditions: foliage application, 320 g/ha, three weeks after application
# Outline: as §1
# barnyard grass [17] = test: Test Example 5: herbicidal effect by foliage application, plastic box (Table 20, symbol H); format: in vivo, barnyard grass (Echinochloa crus-galli); conditions: foliage application, 320 g/ha, three weeks after application
# Outline: as §1
# blackgrass [18] = test: Test Example 5: herbicidal effect by foliage application, plastic box (Table 20, symbol J); format: in vivo, blackgrass (Alopecurus myosuroides); conditions: foliage application, 320 g/ha, three weeks after application
# Outline: as §1
# chickweed [19] = test: Test Example 4: herbicidal effect by soil treatment (Table 19, symbol P); format: in vivo, common chickweed (Stellaria media); conditions: amount of applied herbicide 320 g/ha
# Outline: as §2
# velvetleaf [20] = test: Test Example 5: herbicidal effect by foliage application, plastic box (Table 20, symbol M); format: in vivo, velvetleaf (Abutilon theophrasti); conditions: foliage application, 320 g/ha, three weeks after application
# Outline: as §1
# chickweed [21] = test: Test Example 5: herbicidal effect by foliage application, plastic box (Table 20, symbol P); format: in vivo, common chickweed (Stellaria media); conditions: foliage application, 320 g/ha, three weeks after application
# Outline: as §1
# redroot pigweed [22] = test: Test Example 5: herbicidal effect by foliage application, plastic box (Table 20, symbol N); format: in vivo, redroot pigweed (Amaranthus retroflexus); conditions: foliage application, 320 g/ha, three weeks after application
# Outline: as §1
# barnyard grass [23] = test: Test Example 4: herbicidal effect by soil treatment (Table 19, symbol H); format: in vivo, barnyard grass (Echinochloa crus-galli); conditions: amount of applied herbicide 320 g/ha
# Outline: as §2
# rice flat sedge = test: Test Example 3: herbicidal effect by foliage application, Wagner pot (Table 18, symbol E); format: in vivo, rice flat sedge (Cyperus iria); conditions: amount of applied herbicide 320 g/ha
# Outline: as §3
# blackgrass [24] = test: Test Example 4: herbicidal effect by soil treatment (Table 19, symbol J); format: in vivo, blackgrass (Alopecurus myosuroides); conditions: amount of applied herbicide 320 g/ha
# Outline: as §2
# windgrass [25] = test: Test Example 4: herbicidal effect by soil treatment (Table 19, symbol L); format: in vivo, windgrass (Apera spica-venti); conditions: amount of applied herbicide 320 g/ha
# Outline: as §2
Structure (SMILES),"G: green foxtail, herbicidal effect grade (green foxtail [1])","F: southern crabgrass, herbicidal effect grade (southern crabgrass [2])","L: windgrass, herbicidal effect grade (windgrass [3])","R: persian speedwell, herbicidal effect grade (persian speedwell [4])",herbicidal effect on D: Chinese sprangletop (Chinese sprangletop),"O: lambsquarters, herbicidal effect grade (lambsquarters [10])",herbicidal effect on H: barnyard grass (barnyard grass [13]),"K: Italian ryegrass, herbicidal effect grade (Italian ryegrass [15])","I: wild oat, herbicidal effect grade (wild oat [16])","H: barnyard grass, herbicidal effect grade (barnyard grass [17])","J: blackgrass, herbicidal effect grade (blackgrass [18])","M: velvetleaf, herbicidal effect grade (velvetleaf [20])","P: chickweed, herbicidal effect grade (chickweed [21])","N: redroot pigweed, herbicidal effect grade (redroot pigweed [22])",herbicidal effect on E: rice flat sedge (rice flat sedge),also measured
CCc1nn(C)c(=O)c(-c2c(-c3ccc(OC(F)(F)F)cc3)sc3ccc(F)cc23)c1O [2-412],4 (Herbicidal rate of 70% or more and less than 90%),3 (Herbicidal rate of 40% or more and less than 70%),1 (Herbicidal rate of 5% or more and less than 20%),5 (Herbicidal rate of 90% or more (almost completely withered)),0 (Herbicidal rate of 5% or less (almost no effect)),5 (Herbicidal rate of 90% or more (almost completely withered)),4 (Herbicidal rate of 70% or more and less than 90%),3 (Herbicidal rate of 40% or more and less than 70%),0 (Herbicidal rate of 5% or less (almost no effect)),4 (Herbicidal rate of 70% or more and less than 90%),0 (Herbicidal rate of 5% or less (almost no effect)),3 (Herbicidal rate of 40% or more and less than 70%),5 (Herbicidal rate of 90% or more (almost completely withered)),5 (Herbicidal rate of 90% or more (almost completely withered)),4 (Herbicidal rate of 70% or more and less than 90%),"herbicidal effect, M: velvetleaf (velvetleaf [5]): 0 (Herbicidal rate of 5% or less (almost no effect)); herbicidal effect, O: lambsquarters (lambsquarters [6]): 1 (Herbicidal rate of 5% or more and less than 20%); herbicidal effect, G: green foxtail (green foxtail [7]): 0 (Herbicidal rate of 5% or less (almost no effect)); herbicidal effect, N: redroot pigweed (redroot pigweed [8]): 2 (Herbicidal rate of 20% or more and less than 40%); herbicidal effect, F: southern crabgrass (southern crabgrass [9]): 0 (Herbicidal rate of 5% or less (almost no effect)); herbicidal effect, K: Italian ryegrass (Italian ryegrass [11]): 0 (Herbicidal rate of 5% or less (almost no effect)); herbicidal effect, R: persian speedwell (persian speedwell [12]): 3 (Herbicidal rate of 40% or more and less than 70%); herbicidal effect, I: wild oat (wild oat [14]): 0 (Herbicidal rate of 5% or less (almost no effect)); herbicidal effect, P: chickweed (chickweed [19]): 0 (Herbicidal rate of 5% or less (almost no effect)); herbicidal effect, H: barnyard grass (barnyard grass [23]): 0 (Herbicidal rate of 5% or less (almost no effect)); herbicidal effect, J: blackgrass (blackgrass [24]): 0 (Herbicidal rate of 5% or less (almost no effect)); herbicidal effect, L: windgrass (windgrass [25]): 0 (Herbicidal rate of 5% or less (almost no effect))"
Cc1nn(C)c(=O)c(-c2c(-c3ccc(Cl)cc3)sc3cc(Cl)ccc23)c1O [3-033],5 (Herbicidal rate of 90% or more (almost completely withered)),3 (Herbicidal rate of 40% or more and less than 70%),4 (Herbicidal rate of 70% or more and less than 90%),5 (Herbicidal rate of 90% or more (almost completely withered)),3 (Herbicidal rate of 40% or more and less than 70%),4 (Herbicidal rate of 70% or more and less than 90%),4 (Herbicidal rate of 70% or more and less than 90%),4 (Herbicidal rate of 70% or more and less than 90%),4 (Herbicidal rate of 70% or more and less than 90%),4 (Herbicidal rate of 70% or more and less than 90%),4 (Herbicidal rate of 70% or more and less than 90%),4 (Herbicidal rate of 70% or more and less than 90%),5 (Herbicidal rate of 90% or more (almost completely withered)),5 (Herbicidal rate of 90% or more (almost completely withered)),5 (Herbicidal rate of 90% or more (almost completely withered)),"M: velvetleaf, herbicidal effect grade (velvetleaf [5]): 0 (Herbicidal rate of 5% or less (almost no effect)); O: lambsquarters, herbicidal effect grade (lambsquarters [6]): 3 (Herbicidal rate of 40% or more and less than 70%); G: green foxtail, herbicidal effect grade (green foxtail [7]): 0 (Herbicidal rate of 5% or less (almost no effect)); N: redroot pigweed, herbicidal effect grade (redroot pigweed [8]): 4 (Herbicidal rate of 70% or more and less than 90%); F: southern crabgrass, herbicidal effect grade (southern crabgrass [9]): 0 (Herbicidal rate of 5% or less (almost no effect)); K: Italian ryegrass, herbicidal effect grade (Italian ryegrass [11]): 4 (Herbicidal rate of 70% or more and less than 90%); R: persian speedwell, herbicidal effect grade (persian speedwell [12]): 3 (Herbicidal rate of 40% or more and less than 70%); I: wild oat, herbicidal effect grade (wild oat [14]): 0 (Herbicidal rate of 5% or less (almost no effect)); P: chickweed, herbicidal effect grade (chickweed [19]): 2 (Herbicidal rate of 20% or more and less than 40%); H: barnyard grass, herbicidal effect grade (barnyard grass [23]): 0 (Herbicidal rate of 5% or less (almost no effect)); J: blackgrass, herbicidal effect grade (blackgrass [24]): 0 (Herbicidal rate of 5% or less (almost no effect)); L: windgrass, herbicidal effect grade (windgrass [25]): 3 (Herbicidal rate of 40% or more and less than 70%)"
